PMC4279406, “Simultaneous targeting of PI3Kδ and a PI3Kδ-dependent MEK1/2-Erk1/2 pathway for therapy in pediatric B-cell acute lymphoblastic leukemia” (Oncotarget, 2014)

Experiments:
PI3Kα = target: T1, PI3Kα (Homo sapiens, UniProt P42336); experiment: Kinase Profiler lipid kinase IC50; type: biochemical; conditions: ATP at Km of the isoform; 10-point half-log dilution from 1000 nM
T1 construct: purchased Millipore (Kinase Profiler Services, United Kingdom)
Experimental: (§1) Figure 1 Structure of X-370 and its inhibitory activity against lipid kinases (A) Chemical structure of X-370. (B) X-370 docked to the crystal structure of PI3Kδ. The model was generated based on the co-crystal structure of PI3Kδ and ZSTK474 (PDB ID: 2WXL). (C) IC50 of X-370 against PI3Kδ increased along with ATP concentration. […] Data was obtained from Kinase Profiler Services (Millipore, United Kingdom). Briefly, X-370 was solved in DMSO at a concentration of 10 mM, 10-point kinase inhibitory activity was measured over concentrations in a half-log dilution series started at 1000 nM with ATP at a concentration consistent with Km of each isoform of class I PI3K and IC50s were calculated. Relative kinase activity in the presence of 10 μM X-370 compared to DMSO control was measured for the rest of lipid kinases. TEXT PRINTED IN THE PICTURE: (D) X-370: IC50 (nM): 7 (Isoform: PI3Kδ); IC50 (nM): 433 (Isoform: PI3Kα); IC50 (nM): >1,000 (Isoform: PI3Kγ); IC50 (nM): >1,000 (Isoform: PI3Kβ); Relative Activity (%) X-370 (10 μM): 55 (Lipid Kinases: PI3KC2α); Relative Activity (%) X-370 (10 μM): 63 (Lipid Kinases: PI3KC2γ); Relative Activity (%) X-370 (10 μM): 105 (Lipid Kinases: PIP4K2α); Relative Activity (%) X-370 (10 μM): 100 (Lipid Kinases: PIP5K1α); Relative Activity (%) X-370 (10 μM): 103 (Lipid Kinases: PIP5K1γ) DOUBTS OF THE COPYIST ABOUT THIS PICTURE: Panel D, left table (Isoform / IC50): no substance label is printed in this table; assigned to X-370, the only label printed in the panel (head of the right table)
(§2) In vitro kinase profile assays were analyzed by the Kinase Profiler Service (Millipore, United Kingdom) following its guidelines. A GST-tagged human p110δ and regulatory full-length p85 were co-expressed in insect cell Sf9. Recombinant protein was extracted by affinity purification. The PI3K kinase activity was determined in the increasing concentration of ATP and X-370 with PI3-Kinase HTRF™ Assay kit (Millipore) as described previously.

PI3Kβ = target: T2, PI3Kβ (Homo sapiens, UniProt P42338); experiment: Kinase Profiler lipid kinase IC50; type: biochemical; conditions: ATP at Km of the isoform; 10-point half-log dilution from 1000 nM
T2 construct: purchased Millipore (Kinase Profiler Services, United Kingdom)
Experimental: as §1, §2

PI3Kγ = target: T3, PI3Kγ (Homo sapiens, UniProt P48736); experiment: Kinase Profiler lipid kinase IC50; type: biochemical; conditions: ATP at Km of the isoform; 10-point half-log dilution from 1000 nM
T3 construct: purchased Millipore (Kinase Profiler Services, United Kingdom)
Experimental: as §1, §2

[1] = test system: PI3Kγ (MCP-1-stimulated THP-1 monocytes); experiment: MCP-1-stimulated Akt phosphorylation in THP-1 cells; type: cell-based; conditions: MCP-1 100 ng/ml
Experimental: In fibroblasts, signals from the insulin-like growth factor 1 (IGF-1) receptor are mediated by PI3Kα, while lysophosphatidic acid (LPA) stimulates G-protein coupled receptor (GPCR) signals via PI3Kβ[26]. After being pre-incubated with X-370, murine embryonic fibroblasts cultured in serum-free medium were stimulated with IGF-1 or LPA. […] Either PI3Kδ or PI3Kγ can be activated in THP-1 monocytes dependent on the stimulating ligand, among which macrophage colony stimulating factor (M-CSF/CSF-1) activates RTK-coupled PI3Kδ, while monocyte chemoattractant protein-1 (MCP-1) activates PI3Kγ [24]. Accordingly, THP-1 cells cultured in serum-free medium were stimulated with MCP-1 or M-CSF in the presence of X-370 and phosphorylated Akt was measured.
Cell lysates were probed with indicated antibodies. The IC50 values were calculated based on relative band intensity measured with ImageQuant™ TL (GE Healthcare Life Sciences, Piscataway, NJ) (B). Data shown are mean values from three independent experiments. (C, D, E, F) X-370 blocked stimuli-triggered PI3Kδ activation. MEF cells and THP-1 were starved in serum-free medium for 12 h or 4 h respectively and X-370 were added for an additional 1 h treatment following stimulation of IGF-1 at 100 ng/ml for MEF cells (C), LPA at 10 μM for MEF cells (D), MCP-1 at 100ng/ml for THP-1 (E) and M-CSF at 50 ng/ml for THP-1 (F). […]

T1 sequence (P42336 whole entry, canonical isoform): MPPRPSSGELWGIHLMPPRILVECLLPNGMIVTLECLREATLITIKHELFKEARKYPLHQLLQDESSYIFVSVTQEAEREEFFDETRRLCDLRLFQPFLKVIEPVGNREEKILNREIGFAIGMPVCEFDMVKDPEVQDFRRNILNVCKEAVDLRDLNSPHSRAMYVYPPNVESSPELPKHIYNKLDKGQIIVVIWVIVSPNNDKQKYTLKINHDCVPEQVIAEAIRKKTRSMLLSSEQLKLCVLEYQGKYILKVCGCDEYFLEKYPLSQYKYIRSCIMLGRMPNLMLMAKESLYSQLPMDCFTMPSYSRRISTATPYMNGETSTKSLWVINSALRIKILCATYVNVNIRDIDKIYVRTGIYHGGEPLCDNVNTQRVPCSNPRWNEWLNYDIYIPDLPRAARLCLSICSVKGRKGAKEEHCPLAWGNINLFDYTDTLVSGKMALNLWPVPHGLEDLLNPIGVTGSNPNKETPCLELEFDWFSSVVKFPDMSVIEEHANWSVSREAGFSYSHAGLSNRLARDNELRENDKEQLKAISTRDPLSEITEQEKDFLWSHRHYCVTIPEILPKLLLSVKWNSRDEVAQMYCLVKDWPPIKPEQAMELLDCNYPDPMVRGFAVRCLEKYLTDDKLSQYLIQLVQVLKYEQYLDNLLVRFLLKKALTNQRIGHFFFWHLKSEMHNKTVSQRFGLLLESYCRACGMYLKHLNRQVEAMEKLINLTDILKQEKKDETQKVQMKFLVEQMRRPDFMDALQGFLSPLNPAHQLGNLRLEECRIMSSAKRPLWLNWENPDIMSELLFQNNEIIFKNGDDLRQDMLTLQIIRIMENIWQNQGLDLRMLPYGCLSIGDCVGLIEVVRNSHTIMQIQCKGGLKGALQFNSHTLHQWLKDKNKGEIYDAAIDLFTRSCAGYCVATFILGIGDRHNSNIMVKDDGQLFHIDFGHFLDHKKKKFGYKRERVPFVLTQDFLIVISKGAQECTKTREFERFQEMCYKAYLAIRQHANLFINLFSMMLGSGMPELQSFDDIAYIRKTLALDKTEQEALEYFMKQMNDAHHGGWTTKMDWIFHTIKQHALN
T1 sequence (P27986 whole entry partner, canonical isoform): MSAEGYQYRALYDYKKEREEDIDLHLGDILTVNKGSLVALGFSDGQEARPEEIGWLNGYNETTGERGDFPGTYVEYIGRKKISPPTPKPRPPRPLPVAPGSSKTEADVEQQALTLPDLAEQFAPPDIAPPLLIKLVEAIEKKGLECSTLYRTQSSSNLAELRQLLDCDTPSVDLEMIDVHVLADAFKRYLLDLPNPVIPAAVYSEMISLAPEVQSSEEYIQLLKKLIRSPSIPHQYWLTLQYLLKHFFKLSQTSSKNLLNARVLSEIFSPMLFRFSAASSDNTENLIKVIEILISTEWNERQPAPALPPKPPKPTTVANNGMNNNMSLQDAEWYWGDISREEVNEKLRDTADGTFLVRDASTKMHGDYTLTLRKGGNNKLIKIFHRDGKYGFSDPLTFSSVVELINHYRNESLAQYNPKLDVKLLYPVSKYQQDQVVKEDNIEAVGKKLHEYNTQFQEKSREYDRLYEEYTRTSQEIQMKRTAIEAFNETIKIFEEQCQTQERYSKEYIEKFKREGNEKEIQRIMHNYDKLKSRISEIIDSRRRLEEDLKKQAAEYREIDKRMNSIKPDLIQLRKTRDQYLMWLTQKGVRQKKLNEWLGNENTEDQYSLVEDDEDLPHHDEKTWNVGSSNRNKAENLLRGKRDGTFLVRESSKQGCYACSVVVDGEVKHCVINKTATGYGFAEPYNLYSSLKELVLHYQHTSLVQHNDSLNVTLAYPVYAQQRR
T3 sequence (P48736 whole entry, canonical isoform): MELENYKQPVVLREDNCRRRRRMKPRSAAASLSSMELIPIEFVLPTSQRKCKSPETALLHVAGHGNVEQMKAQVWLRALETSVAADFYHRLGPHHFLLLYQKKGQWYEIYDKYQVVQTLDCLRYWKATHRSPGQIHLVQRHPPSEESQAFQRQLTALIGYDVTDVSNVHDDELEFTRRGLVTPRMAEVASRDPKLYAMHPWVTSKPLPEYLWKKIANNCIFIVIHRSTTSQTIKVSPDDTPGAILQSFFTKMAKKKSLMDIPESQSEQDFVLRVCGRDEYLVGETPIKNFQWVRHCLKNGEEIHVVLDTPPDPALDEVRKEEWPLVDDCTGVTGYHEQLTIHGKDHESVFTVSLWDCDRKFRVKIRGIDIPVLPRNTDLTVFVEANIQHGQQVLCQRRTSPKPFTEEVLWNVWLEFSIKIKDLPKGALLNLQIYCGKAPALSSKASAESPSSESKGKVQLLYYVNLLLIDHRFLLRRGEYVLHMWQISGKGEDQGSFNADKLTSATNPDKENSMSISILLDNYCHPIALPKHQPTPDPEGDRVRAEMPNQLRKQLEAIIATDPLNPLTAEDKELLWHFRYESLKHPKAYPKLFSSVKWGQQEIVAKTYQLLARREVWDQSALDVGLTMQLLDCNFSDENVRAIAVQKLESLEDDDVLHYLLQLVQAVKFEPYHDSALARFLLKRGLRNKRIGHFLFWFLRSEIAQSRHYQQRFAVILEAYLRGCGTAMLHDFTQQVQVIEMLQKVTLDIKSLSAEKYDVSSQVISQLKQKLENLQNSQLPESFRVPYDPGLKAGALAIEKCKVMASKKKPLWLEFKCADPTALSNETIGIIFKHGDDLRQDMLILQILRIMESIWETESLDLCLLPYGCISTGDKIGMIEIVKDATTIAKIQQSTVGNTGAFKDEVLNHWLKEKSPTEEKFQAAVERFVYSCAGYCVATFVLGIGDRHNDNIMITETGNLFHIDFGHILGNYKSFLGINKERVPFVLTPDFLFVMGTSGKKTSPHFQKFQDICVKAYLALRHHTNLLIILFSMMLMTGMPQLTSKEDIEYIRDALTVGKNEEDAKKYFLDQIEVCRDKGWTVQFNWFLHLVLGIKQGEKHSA
T2 sequence (P42338 whole entry, canonical isoform): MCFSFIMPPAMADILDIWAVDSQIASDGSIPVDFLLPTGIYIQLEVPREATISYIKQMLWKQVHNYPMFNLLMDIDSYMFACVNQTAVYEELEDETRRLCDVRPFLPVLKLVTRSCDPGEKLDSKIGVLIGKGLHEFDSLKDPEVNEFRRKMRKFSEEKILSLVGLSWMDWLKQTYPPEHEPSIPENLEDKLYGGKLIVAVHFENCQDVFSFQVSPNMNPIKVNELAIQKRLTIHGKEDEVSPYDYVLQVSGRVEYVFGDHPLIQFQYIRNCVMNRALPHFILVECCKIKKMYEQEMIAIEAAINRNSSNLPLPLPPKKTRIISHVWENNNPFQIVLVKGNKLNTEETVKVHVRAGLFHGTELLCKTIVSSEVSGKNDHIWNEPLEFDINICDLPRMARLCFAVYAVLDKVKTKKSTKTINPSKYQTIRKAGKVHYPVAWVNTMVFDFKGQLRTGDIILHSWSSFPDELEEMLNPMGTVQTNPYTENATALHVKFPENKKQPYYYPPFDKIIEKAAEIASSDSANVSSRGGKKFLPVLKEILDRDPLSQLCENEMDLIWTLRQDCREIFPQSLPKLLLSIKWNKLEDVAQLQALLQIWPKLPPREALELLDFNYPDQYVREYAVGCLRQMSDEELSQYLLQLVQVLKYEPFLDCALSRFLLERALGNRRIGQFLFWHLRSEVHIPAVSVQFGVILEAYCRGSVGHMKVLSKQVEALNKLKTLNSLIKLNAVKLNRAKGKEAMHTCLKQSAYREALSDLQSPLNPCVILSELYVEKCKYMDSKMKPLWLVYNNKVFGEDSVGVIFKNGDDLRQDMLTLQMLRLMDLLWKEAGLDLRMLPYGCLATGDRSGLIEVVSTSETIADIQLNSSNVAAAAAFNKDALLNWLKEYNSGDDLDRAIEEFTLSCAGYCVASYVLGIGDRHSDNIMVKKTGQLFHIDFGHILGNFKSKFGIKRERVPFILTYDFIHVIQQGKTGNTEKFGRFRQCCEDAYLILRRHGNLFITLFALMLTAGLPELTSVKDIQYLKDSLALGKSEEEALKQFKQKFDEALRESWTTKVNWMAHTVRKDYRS
T2 sequence (P27986 whole entry partner, canonical isoform): as the sequence (P27986 whole entry partner, canonical isoform) above

IC50 (PI3Kα): 433 nM | IC50 (PI3Kβ): > 1000 nM | IC50 (PI3Kγ): > 1000 nM
SMILES: O=C(N1CCCC1)N1CCC(n2cnc3c(-n4c(C(F)F)nc5ccccc54)nc(N4CCOCC4)nc32)CC1 [X-370]
MCP-1-stimulated Akt phosphorylation [1]: much less activity
